Target: T1, human FFAR1 (GPR40) (Homo sapiens, UniProt O14842)
T1 construct: Flag; expressed in transfected cells; host or cells: HEK293T
Assay: NFAT-RE-based reporter gene activity assay (Dual-Glo luciferase) for GPR40 agonistic activity in co-transfected HEK293T cells
Type: cell-based
Settings: 4-hour treatment; for Efficacy (%): class symbols
In short: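 Agonism read as NFAT-RE-driven firefly luciferase over Renilla control (Dual-Glo) after 4 h compound exposure, top concentration 1 µM, 10 half-log steps.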

T1 sequence (O14842 whole entry): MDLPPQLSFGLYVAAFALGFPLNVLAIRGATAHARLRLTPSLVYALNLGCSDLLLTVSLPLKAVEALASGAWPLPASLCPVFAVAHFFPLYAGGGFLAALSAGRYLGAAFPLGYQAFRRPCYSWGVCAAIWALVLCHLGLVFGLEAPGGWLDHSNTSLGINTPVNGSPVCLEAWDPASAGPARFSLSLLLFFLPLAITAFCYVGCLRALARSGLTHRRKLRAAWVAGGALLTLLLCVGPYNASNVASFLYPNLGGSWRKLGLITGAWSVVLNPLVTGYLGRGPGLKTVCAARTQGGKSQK

For `COc1cccc(N2CCC(c3oc4cc([C@@H](CC(=O)O)C5CC5)ccc4c3C(OCC(C)C)c3ccc(F)cc3)CC2)c1` (stereo partly shown) [Compound 431], the EC50 was 100 to 500 nM and the “Efficacy (%)” value was “†† (150 ≥ Efficacy (%) > 100)”.
For `CC(C)(C)c1cccc(-c2c(C3CCN(c4ccc(F)cc4)CC3)oc3cc(C(CC(=O)O)C4CC4)ccc23)c1` (stereo not shown) [Compound 7], the EC50 was 100 to 500 nM and the “Efficacy (%)” value was “†† (150 ≥ Efficacy (%) > 100)”.
With `COc1ccc(F)c(N2CCC(c3oc4cc([C@@H](CC(=O)O)C5CC5)ccc4c3C(=O)Nc3cc(C(F)(F)F)ccc3Cl)CC2)c1` [Compound 340] the EC50 was < 10 nM and the “Efficacy (%)” value was “††† (Efficacy (%) > 150)”.
For `COc1cccc(N2CCC(c3oc4cc(C(CC(=O)O)C5CC5)ccc4c3C(=O)Nc3cccc(Cl)c3)CC2)c1` (stereo not shown) [Compound 248], the EC50 was 100 to 500 nM and the “Efficacy (%)” value was “†† (150 ≥ Efficacy (%) > 100)”.
With `COc1cccc(N2CCC(c3oc4cc([C@@H](CC(=O)O)C5CC5)ccc4c3C(=O)Nc3ccccc3Cl)CC2)c1F` [Compound 322] the EC50 was ≤ 10 nM and the “Efficacy (%)” value was “†† (150 ≥ Efficacy (%) > 100)”.
`COc1cccc(N2CCC(c3oc4cc([C@@H](CC(=O)O)C5CC5)ccc4c3C(=O)Nc3cc(C(F)(F)F)ccc3F)CC2)c1` [Compound 261] was tested, and the EC50 was ≤ 10 nM and the “Efficacy (%)” value was “††† (Efficacy (%) > 150)”.
With `COc1ccc(F)c(N2CCC(c3oc4cc(C(CC(=O)O)C5CC5)ccc4c3C(=O)Nc3ccccc3)CC2)c1` (stereo not shown) [Compound 314] the EC50 was 100 to 500 nM and the “Efficacy (%)” value was “†† (150 ≥ Efficacy (%) > 100)”.
`COc1ccc(F)c(N2CCC(c3cc4ccc(C(CC(=O)O)C5CC5)cc4o3)CC2)c1` (stereo not shown) [Comparative Example 1, reference compound] was tested, and the EC50 was > 1000 nM and the “Efficacy (%)” value was “NA (NA indicates no activity)”.
In the case of `CC(C)(C)n1cc(-c2c(C3CCN(c4ccc5c(c4)OCO5)CC3)oc3cc([C@@H](CC(=O)O)C4CC4)ccc23)cn1` [Compound 97], the EC50 is reported as 10 to 100 nM and the “Efficacy (%)” value is reported as “†† (150 ≥ Efficacy (%) > 100)”.
For `COc1ccc(F)c(N2CCC(c3oc4cc([C@@H](CC(=O)O)C5CC5)ccc4c3-c3nnc(C(C)(C)C)o3)CC2)c1` [Compound 142], the EC50 was 100 to 500 nM and the “Efficacy (%)” value was “†† (150 ≥ Efficacy (%) > 100)”.
In the case of `COc1ccc(F)c(N2CCC(c3oc4cc(C(CC(=O)O)C5CC5)ccc4c3C(=O)Nc3cccc(C(C)(C)C)c3)CC2)c1` (stereo not shown) [Compound 316], the EC50 is reported as 100 to 500 nM and the “Efficacy (%)” value is reported as “†† (150 ≥ Efficacy (%) > 100)”.
In the case of `COc1ccc(F)c(N2CCC(c3oc4cc([C@H](C5CC5)C(F)C(=O)O)ccc4c3-c3cccc(C(C)(C)C)c3)CC2)c1` (stereo partly shown) [Compound 219], the EC50 is reported as 10 to 100 nM and the “Efficacy (%)” value is reported as “† (100 ≥ Efficacy (%) > 50)”.
In the case of `COc1ccc(F)c(N2CCC(c3oc4cc([C@@H](CC(=O)O)C5CC5)ccc4c3C(=O)Nc3cc(F)ccc3Br)CC2)c1` [Compound 342], the EC50 is reported as ≤ 10 nM and the “Efficacy (%)” value is reported as “†† (150 ≥ Efficacy (%) > 100)”.
`COc1cccc(N2CCC(c3oc4cc([C@@H](CC(=O)O)C5CC5)ccc4c3C(=O)Nc3cc(C)ccc3Cl)CC2)c1` [Compound 265] was tested, and the EC50 was ≤ 10 nM and the “Efficacy (%)” value was “††† (Efficacy (%) > 150)”.
In the case of `COc1cccc(N2CCC(c3oc4cc([C@@H](CC(=O)O)C5CC5)ccc4c3C(=O)Nc3cc(C)ccc3C)CC2)c1` [Compound 269], the EC50 is reported as 10 to 100 nM and the “Efficacy (%)” value is reported as “††† (Efficacy (%) > 150)”.
In the case of `COc1cccc(N2CCC(c3oc4cc(C(CC(=O)O)C5CC5)ccc4c3-c3cc(C(C)(C)C)on3)CC2)c1` (stereo not shown) [Compound 114], the EC50 is reported as 10 to 100 nM and the “Efficacy (%)” value is reported as “†† (150 ≥ Efficacy (%) > 100)”.
For `COc1cccc(N2CCC(c3oc4cc(OC(C)C(=O)O)ccc4c3-c3cnn(C(C)(C)C)c3)CC2)c1` (stereo not shown) [Compound 65], the EC50 was 100 to 500 nM and the “Efficacy (%)” value was “†† (150 ≥ Efficacy (%) > 100)”.
With `COc1ccc(F)c(N2CCC(c3oc4cc(C(CC(=O)O)C5CC5)ccc4c3-c3cccc(-n4cccn4)c3)CC2)c1` (stereo not shown) [Compound 193] the EC50 was 100 to 500 nM and the “Efficacy (%)” value was “†† (150 ≥ Efficacy (%) > 100)”.
With `COc1ccc(F)c(N2CCC(c3oc4cc(C(CC(=O)O)C5CC5)ccc4c3-c3ccc(N(C(C)=O)C(C)C)cc3)CC2)c1` (stereo not shown) [Compound 186] the EC50 was 100 to 500 nM and the “Efficacy (%)” value was “† (100 ≥ Efficacy (%) > 50)”.
For `COc1cccc(N2CCC(c3oc4cc(C(CC(=O)O)C5CC5)ccc4c3C(=O)Nc3cccc(C)c3F)CC2)c1` (stereo not shown) [Compound 250], the EC50 was 100 to 500 nM and the “Efficacy (%)” value was “†† (150 ≥ Efficacy (%) > 100)”.
For `COc1ccc(Cl)c(N2CCC(c3oc4cc(C(CC(=O)O)C5CC5)ccc4c3-c3cnn(C(C)(C)C)c3)CC2)c1` (stereo not shown) [Compound 90], the EC50 was 100 to 500 nM and the “Efficacy (%)” value was “† (100 ≥ Efficacy (%) > 50)”.
For `COc1cccc(N2CCC(c3oc4cc([C@@H](CC(=O)O)C5CC5)ccc4c3C(=O)Nc3cc(F)ccc3Br)CC2)c1` [Compound 271], the EC50 was ≤ 10 nM and the “Efficacy (%)” value was “††† (Efficacy (%) > 150)”.
In the case of `COc1cccc(N2CCC(c3oc4cc([C@@H](CC(=O)O)C5CC5)ccc4c3C(=O)Nc3ccccc3F)CC2)c1` [Compound 234], the EC50 is reported as ≤ 10 nM and the “Efficacy (%)” value is reported as “†† (150 ≥ Efficacy (%) > 100)”.
With `COc1cccc(N2CCC(c3oc4cc([C@@H](CC(=O)O)C5CC5)ccc4c3-c3nc4ccccc4s3)CC2)c1` [Compound 152] the EC50 was 100 to 500 nM and the “Efficacy (%)” value was “†† (150 ≥ Efficacy (%) > 100)”.
`COc1cccc(N2CCC(c3oc4cc(C(CC(=O)O)C5CC5)ccc4c3-c3nnc(C4(C)CC4)o3)CC2)c1` (stereo not shown) [Compound 134] was tested, and the EC50 was 100 to 500 nM and the “Efficacy (%)” value was “† (100 ≥ Efficacy (%) > 50)”.
In the case of `CC(C)(C)c1cccc(-c2c(C3CCN(c4cccc(C(F)(F)F)c4)CC3)oc3cc(C(CC(=O)O)C4CC4)ccc23)c1` (stereo not shown) [Compound 20], the EC50 is reported as 100 to 500 nM and the “Efficacy (%)” value is reported as “†† (150 ≥ Efficacy (%) > 100)”.
For `COc1cccc(N2CCC(c3oc4cc([C@@H](CC(=O)O)C5CC5)ccc4c3-c3cc(C)ccn3)CC2)c1` [Compound 146], the EC50 was 100 to 500 nM and the “Efficacy (%)” value was “††† (Efficacy (%) > 150)”.
In the case of `COc1cccc(N2CCC(c3oc4cc([C@@H](CC(=O)O)C5CC5)ccc4c3C(=O)NC34CC5CC(C)(CC(C)(C5)C3)C4)CC2)c1` [Compound 354], the EC50 is reported as 100 to 500 nM and the “Efficacy (%)” value is reported as “†† (150 ≥ Efficacy (%) > 100)”.
`COc1ccc(F)c(N2CCC(c3oc4cc(C(C)CC(=O)O)ccc4c3-c3cccc(C(C)(C)C)c3)CC2)c1` (stereo not shown) [Compound 232] was tested, and the EC50 was 100 to 500 nM and the “Efficacy (%)” value was “† (100 ≥ Efficacy (%) > 50)”.
In the case of `COc1cccc(N2CCC(c3oc4cc(C(CC(=O)O)C5CC5)ccc4c3C3O[C@@H](C)[C@H](C)O3)CC2)c1` (stereo partly shown) [Compound 400], the EC50 is reported as 100 to 500 nM and the “Efficacy (%)” value is reported as “† (100 ≥ Efficacy (%) > 50)”.
In the case of `COc1ccc(F)c(N2CCC(c3oc4cc([C@@H](CC(=O)O)C5CC5)ccc4c3C/C=C/C3CC3)CC2)c1` [Compound 373], the EC50 is reported as 10 to 100 nM and the “Efficacy (%)” value is reported as “†† (150 ≥ Efficacy (%) > 100)”.
For `CCC(C)(C)c1nnc(-c2c(C3CCN(c4cccc(OC)c4)CC3)oc3cc(C(CC(=O)O)C4CC4)ccc23)o1` (stereo not shown) [Compound 128], the EC50 was 10 to 100 nM and the “Efficacy (%)” value was “†† (150 ≥ Efficacy (%) > 100)”.
With `COc1ccc(F)c(N2CCC(c3oc4cc([C@H](C5CC5)C(F)C(=O)O)ccc4c3-c3ccc(C(C)(C)C)cc3)CC2)c1` (stereo partly shown) [Compound 220] the EC50 was 100 to 500 nM and the “Efficacy (%)” value was “††††”.
With `CC(C)(C)c1ccc(-c2c(C3CCN(c4ccc5c(c4)OCO5)CC3)oc3cc(C(CC(=O)O)C4CC4)ccc23)cc1` (stereo not shown) [Compound 212] the EC50 was 100 to 500 nM and the “Efficacy (%)” value was “†† (150 ≥ Efficacy (%) > 100)”.
With `COc1cccc(N2CCC(c3oc4cc([C@@H](CC(=O)O)C5CC5)ccc4c3-c3cc4ccccc4[nH]3)CC2)c1` [Compound 150] the EC50 was 100 to 500 nM and the “Efficacy (%)” value was “†† (150 ≥ Efficacy (%) > 100)”.
With `COc1cccc(N2CCC(c3oc4cc(C(CC(=O)O)C5CC5)ccc4c3C(=O)Nc3c(C)cccc3F)CC2)c1` (stereo not shown) [Compound 252] the EC50 was 100 to 500 nM and the “Efficacy (%)” value was “†† (150 ≥ Efficacy (%) > 100)”.
For `CC(c1ccccc1OC(F)(F)F)N1CCC(c2oc3cc(C(CC(=O)O)C4CC4)ccc3c2C(=O)Nc2ccccc2F)CC1` (stereo not shown) [Compound 327], the EC50 was 100 to 500 nM and the “Efficacy (%)” value was “†† (150 ≥ Efficacy (%) > 100)”.
With `COc1cccc(N2CCC(c3oc4cc([C@@H](CC(=O)O)C5CC5)ccc4c3-c3cc(C(C)(C)C)no3)CC2)c1` [Compound 116] the EC50 was ≤ 10 nM and the “Efficacy (%)” value was “†† (150 ≥ Efficacy (%) > 100)”.
`CC(C)(C)c1cccc(-c2c(C3CCN(c4ccccc4F)CC3)oc3cc(C(CC(=O)O)C4CC4)ccc23)c1` (stereo not shown) [Compound 9] was tested, and the EC50 was 100 to 500 nM and the “Efficacy (%)” value was “†† (150 ≥ Efficacy (%) > 100)”.
For `COc1cccc(N2CCC(c3oc4cc([C@@H](CC(=O)O)C5CC5)ccc4c3-c3nc(C(C)(C)C)co3)CC2)c1` [Compound 117], the EC50 was 10 to 100 nM and the “Efficacy (%)” value was “†† (150 ≥ Efficacy (%) > 100)”.
`CCC(OCC(C)(C)C)c1c(C2CCN(c3cccc(OC)c3)CC2)oc2cc([C@@H](CC(=O)O)C3CC3)ccc12` (stereo partly shown) [Compound 416] was tested, and the EC50 was 10 to 100 nM and the “Efficacy (%)” value was “†† (150 ≥ Efficacy (%) > 100)”.
For `COc1ccc(F)c(N2CCC(c3oc4cc(C(CC(=O)O)C5CC5)ccc4c3-c3ccc(C(C)C)cc3)CC2)c1` (stereo not shown) [Compound 163], the EC50 was 100 to 500 nM and the “Efficacy (%)” value was “†† (150 ≥ Efficacy (%) > 100)”.
With `COc1ccc(F)c(N2CCC(c3oc4cc(C(CC(=O)O)C5CC5)ccc4c3-c3cccc(N4CCCC4(C)C)c3)CC2)c1` (stereo not shown) [Compound 192] the EC50 was 100 to 500 nM and the “Efficacy (%)” value was “†† (150 ≥ Efficacy (%) > 100)”.
For `O=C(O)C[C@H](c1ccc2c(C(=O)Nc3cc(F)ccc3Br)c(C3CCN(c4ccc5c(c4)OCO5)CC3)oc2c1)C1CC1` [Compound 334], the EC50 was ≤ 10 nM and the “Efficacy (%)” value was “†† (150 ≥ Efficacy (%) > 100)”.
For `COc1cccc(N2CCC(c3oc4cc(C(CC(=O)O)C5CC5)ccc4c3-c3csc(C)c3)CC2)c1` (stereo not shown) [Compound 35], the EC50 was 100 to 500 nM and the “Efficacy (%)” value was “†† (150 ≥ Efficacy (%) > 100)”.
For `COc1ccc(F)c(N2CCC(c3oc4cc([C@@H](CC(=O)O)C5CC5)ccc4c3/C=C/C(C)(C)O)CC2)c1` [Compound 369], the EC50 was 100 to 500 nM and the “Efficacy (%)” value was “† (100 ≥ Efficacy (%) > 50)”.
`COc1cccc(N2CCC(c3oc4cc(C(CC(=O)O)C5CC5)ccc4c3-c3noc(C(C)(C)C)n3)CC2)c1` (stereo not shown) [Compound 122] was tested, and the EC50 was 10 to 100 nM and the “Efficacy (%)” value was “†† (150 ≥ Efficacy (%) > 100)”.

— EP4682145A1, “BENZOHETEROCYCLIC COMPOUND, AND PREPARATION METHOD THEREFOR AND USE THEREOF” (Cascade Pharmaceuticals, Inc., priority 2023, dated 2024)
